Values after ≈ are worked out from the molar mass of the structure shown. Like-named read-outs stand apart in the source and are kept apart here. One block for each molecule: values may come before it.
Columns and labels:
[1] = test system: Pseudomonas aeruginosa; experiment: MIC, CLSI broth microdilution, Pseudomonas aeruginosa panel; format: cell-based
Description: (§1) Minimum inhibitory concentrations (MIC) were determined by reference Clinical and Laboratory Standards Institute (CLSI) broth microdilution methods per M7-A7 [2006]. Quality control ranges utilizing E. coli ATCC 25922, P. aeruginosa ATCC 27853 and S. aureus ATCC 29213, and interpretive criteria for comparator agents were as published in CLSI M100-S17 [2007]. Briefly, serial two-fold dilutions of the test compounds were prepared at 2× concentration in Mueller Hinton Broth. The compound dilutions were mixed in 96-well assay plates in a 1:1 ratio with bacterial inoculum. The inoculum was prepared by suspension of a colony from an agar plate that was prepared the previous day. Bacteria were suspended in sterile saline and added to each assay plate to obtain a final concentration of 5×10^5 CFU/mL. The plates were incubated at 35 C for 20 hours in ambient air.
The MIC panel presented in Table 1 contains 27 isolates of Pseudomonas aeruginosa: strains 1-22 are clinical isolates from around the world collected between 2004-2007 which contain representative resistance mechanisms commonly found in Pseudomonas, such as the AAC(6′)-I, AAC(6′)-II, APH(3′)-IIb, ANT(2″)-I, and perm/efflux; strains 23-27 are susceptible.

[2] = test system: Acinetobacter baumannii; experiment: MIC, CLSI broth microdilution, Acinetobacter baumannii panel; format: cell-based; details: Acinetobacter baumannii, read-out: MIC
Description: as §1
The MIC panel presented in Table 2 contains 29 isolates of Acinetobacter baumannii: strains 1-24 are clinical isolates from around the world collected between 2004-2007 which contain representative resistance mechanisms commonly found in Acinetobacter baumannii, such as AAC(3)-I and II, AAC(6′)-I, ANT(2″)-I, APH(3′)-VI, and perm/efflux; strains 25-29 are susceptible.

Structure (SMILES): NC[C@@H]1O[C@H](O[C@H]2[C@@H](O)[C@H](O[C@@H]3[C@@H](O)[C@H](N)C[C@H](N)[C@H]3O[C@H]3O[C@H](CN)[C@@H](O)[C@H](O)[C@H]3N)O[C@@H]2CO)[C@H](N)[C@@H](O)[C@@H]1O [Neo B, neomycin B]
MIC ([1]; P. aeruginosa clinical strain 1 (resistant clinical isolate)): E (MIC's greater than or equal to 32.0 μg/mL = E) | MIC ([1]; P. aeruginosa clinical strain 2 (resistant clinical isolate)): D (MIC's greater than or equal to 16.0 μg/mL and lower than 32 μg/mL = D) | MIC ([1]; P. aeruginosa clinical strain 3 (resistant clinical isolate)): E (MIC's greater than or equal to 32.0 μg/mL = E) | MIC ([1]; P. aeruginosa clinical strain 4 (resistant clinical isolate)): E (MIC's greater than or equal to 32.0 μg/mL = E) | MIC ([1]; P. aeruginosa clinical strain 5 (resistant clinical isolate)): E (MIC's greater than or equal to 32.0 μg/mL = E) | MIC ([1]; P. aeruginosa clinical strain 6 (resistant clinical isolate)): D (MIC's greater than or equal to 16.0 μg/mL and lower than 32 μg/mL = D) | MIC ([1]; P. aeruginosa clinical strain 7 (resistant clinical isolate)): C (MIC's greater than or equal to 8 μg/mL and lower than 16.0 μg/mL = C) | MIC ([1]; P. aeruginosa clinical strain 8 (resistant clinical isolate)): E (MIC's greater than or equal to 32.0 μg/mL = E) | MIC ([1]; P. aeruginosa clinical strain 9 (resistant clinical isolate)): D (MIC's greater than or equal to 16.0 μg/mL and lower than 32 μg/mL = D) | MIC ([1]; P. aeruginosa clinical strain 10 (resistant clinical isolate)): E (MIC's greater than or equal to 32.0 μg/mL = E) | MIC ([1]; P. aeruginosa clinical strain 11 (resistant clinical isolate)): B (MIC's of greater than 1.0 μg/mL and lower than 8 μg/mL = B) | MIC ([1]; P. aeruginosa clinical strain 12 (resistant clinical isolate)): E (MIC's greater than or equal to 32.0 μg/mL = E) | MIC ([1]; P. aeruginosa clinical strain 13 (resistant clinical isolate)): E (MIC's greater than or equal to 32.0 μg/mL = E) | MIC ([1]; P. aeruginosa clinical strain 14 (resistant clinical isolate)): E (MIC's greater than or equal to 32.0 μg/mL = E) | MIC ([1]; P. aeruginosa clinical strain 15 (resistant clinical isolate)): E (MIC's greater than or equal to 32.0 μg/mL = E) | MIC ([1]; P. aeruginosa clinical strain 16 (resistant clinical isolate)): E (MIC's greater than or equal to 32.0 μg/mL = E) | MIC ([1]; P. aeruginosa clinical strain 17 (resistant clinical isolate)): C (MIC's greater than or equal to 8 μg/mL and lower than 16.0 μg/mL = C) | MIC ([1]; P. aeruginosa clinical strain 18 (resistant clinical isolate)): E (MIC's greater than or equal to 32.0 μg/mL = E) | MIC ([1]; P. aeruginosa clinical strain 19 (resistant clinical isolate)): E (MIC's greater than or equal to 32.0 μg/mL = E) | MIC ([1]; P. aeruginosa clinical strain 20 (resistant clinical isolate)): E (MIC's greater than or equal to 32.0 μg/mL = E) | MIC ([1]; P. aeruginosa clinical strain 21 (resistant clinical isolate)): E (MIC's greater than or equal to 32.0 μg/mL = E) | MIC ([1]; P. aeruginosa clinical strain 22 (resistant clinical isolate)): E (MIC's greater than or equal to 32.0 μg/mL = E) | MIC ([1]; P. aeruginosa strain 23 (susceptible)): B (MIC's of greater than 1.0 μg/mL and lower than 8 μg/mL = B) | MIC ([1]; P. aeruginosa strain 24 (susceptible)): B (MIC's of greater than 1.0 μg/mL and lower than 8 μg/mL = B) | MIC ([1]; P. aeruginosa strain 25 (susceptible)): B (MIC's of greater than 1.0 μg/mL and lower than 8 μg/mL = B) | MIC ([1]; P. aeruginosa strain 26 (susceptible)): C (MIC's greater than or equal to 8 μg/mL and lower than 16.0 μg/mL = C) | MIC ([1]; P. aeruginosa strain 27 (susceptible)): B (MIC's of greater than 1.0 μg/mL and lower than 8 μg/mL = B)

MIC ([1]; Pseudomonas aeruginosa, P. aeruginosa clinical strain 1 (resistant clinical isolate), read-out: MIC): ≥ 32 µg/mL | MIC ([1]; Pseudomonas aeruginosa, P. aeruginosa clinical strain 2 (resistant clinical isolate), read-out: MIC): ≥ 32 µg/mL | MIC ([1]; Pseudomonas aeruginosa, P. aeruginosa clinical strain 3 (resistant clinical isolate), read-out: MIC): ≥ 32 µg/mL | MIC ([1]; Pseudomonas aeruginosa, P. aeruginosa clinical strain 4 (resistant clinical isolate), read-out: MIC): ≥ 32 µg/mL | MIC ([1]; Pseudomonas aeruginosa, P. aeruginosa clinical strain 5 (resistant clinical isolate), read-out: MIC): ≥ 32 µg/mL | MIC ([1]; Pseudomonas aeruginosa, P. aeruginosa clinical strain 6 (resistant clinical isolate), read-out: MIC): 8 to 16 µg/mL (≈ 13.7 to 27.3 µM) | MIC ([1]; Pseudomonas aeruginosa, P. aeruginosa clinical strain 7 (resistant clinical isolate), read-out: MIC): 1 to 8 µg/mL (≈ 1.71 to 13.7 µM) | MIC ([1]; Pseudomonas aeruginosa, P. aeruginosa clinical strain 8 (resistant clinical isolate), read-out: MIC): 16 to 32 µg/mL (≈ 27.3 to 54.6 µM) | MIC ([1]; Pseudomonas aeruginosa, P. aeruginosa clinical strain 9 (resistant clinical isolate), read-out: MIC): 8 to 16 µg/mL (≈ 13.7 to 27.3 µM) | MIC ([1]; Pseudomonas aeruginosa, P. aeruginosa clinical strain 10 (resistant clinical isolate), read-out: MIC): 16 to 32 µg/mL (≈ 27.3 to 54.6 µM) | MIC ([1]; Pseudomonas aeruginosa, P. aeruginosa clinical strain 11 (resistant clinical isolate), read-out: MIC): ≤ 1 µg/mL | MIC ([1]; Pseudomonas aeruginosa, P. aeruginosa clinical strain 12 (resistant clinical isolate), read-out: MIC): ≤ 1 µg/mL | MIC ([1]; Pseudomonas aeruginosa, P. aeruginosa clinical strain 13 (resistant clinical isolate), read-out: MIC): 1 to 8 µg/mL (≈ 1.71 to 13.7 µM) | MIC ([1]; Pseudomonas aeruginosa, P. aeruginosa clinical strain 14 (resistant clinical isolate), read-out: MIC): 1 to 8 µg/mL (≈ 1.71 to 13.7 µM) | MIC ([1]; Pseudomonas aeruginosa, P. aeruginosa clinical strain 15 (resistant clinical isolate), read-out: MIC): 8 to 16 µg/mL (≈ 13.7 to 27.3 µM) | MIC ([1]; Pseudomonas aeruginosa, P. aeruginosa clinical strain 16 (resistant clinical isolate), read-out: MIC): ≥ 32 µg/mL | MIC ([1]; Pseudomonas aeruginosa, P. aeruginosa clinical strain 17 (resistant clinical isolate), read-out: MIC): ≥ 32 µg/mL | MIC ([1]; Pseudomonas aeruginosa, P. aeruginosa clinical strain 18 (resistant clinical isolate), read-out: MIC): ≥ 32 µg/mL | MIC ([1]; Pseudomonas aeruginosa, P. aeruginosa clinical strain 19 (resistant clinical isolate), read-out: MIC): ≥ 32 µg/mL | MIC ([1]; Pseudomonas aeruginosa, P. aeruginosa clinical strain 20 (resistant clinical isolate), read-out: MIC): ≥ 32 µg/mL | MIC ([1]; Pseudomonas aeruginosa, P. aeruginosa clinical strain 21 (resistant clinical isolate), read-out: MIC): 16 to 32 µg/mL (≈ 27.3 to 54.6 µM) | MIC ([1]; Pseudomonas aeruginosa, P. aeruginosa clinical strain 22 (resistant clinical isolate), read-out: MIC): 16 to 32 µg/mL (≈ 27.3 to 54.6 µM) | MIC ([1]; Pseudomonas aeruginosa, P. aeruginosa strain 23 (susceptible), read-out: MIC): 1 to 8 µg/mL (≈ 1.71 to 13.7 µM) | MIC ([1]; Pseudomonas aeruginosa, P. aeruginosa strain 24 (susceptible), read-out: MIC): 1 to 8 µg/mL (≈ 1.71 to 13.7 µM) | MIC ([1]; Pseudomonas aeruginosa, P. aeruginosa strain 25 (susceptible), read-out: MIC): 1 to 8 µg/mL (≈ 1.71 to 13.7 µM) | MIC ([1]; Pseudomonas aeruginosa, P. aeruginosa strain 26 (susceptible), read-out: MIC): 1 to 8 µg/mL (≈ 1.71 to 13.7 µM) | MIC ([1]; Pseudomonas aeruginosa, P. aeruginosa strain 27 (susceptible), read-out: MIC): ≤ 1 µg/mL | MIC ([2]; A. baumannii clinical strain 1 (resistant clinical isolate)): ≥ 32 µg/mL | MIC ([2]; A. baumannii clinical strain 2 (resistant clinical isolate)): ≥ 32 µg/mL | MIC ([2]; A. baumannii clinical strain 3 (resistant clinical isolate)): 8 to 16 µg/mL (≈ 13.7 to 27.3 µM) | MIC ([2]; A. baumannii clinical strain 4 (resistant clinical isolate)): 16 to 32 µg/mL (≈ 27.3 to 54.6 µM) | MIC ([2]; A. baumannii clinical strain 5 (resistant clinical isolate)): ≥ 32 µg/mL | MIC ([2]; A. baumannii clinical strain 6 (resistant clinical isolate)): ≥ 32 µg/mL | MIC ([2]; A. baumannii clinical strain 7 (resistant clinical isolate)): ≥ 32 µg/mL | MIC ([2]; A. baumannii clinical strain 8 (resistant clinical isolate)): ≥ 32 µg/mL | MIC ([2]; A. baumannii clinical strain 9 (resistant clinical isolate)): 1 to 8 µg/mL (≈ 1.71 to 13.7 µM) | MIC ([2]; A. baumannii clinical strain 10 (resistant clinical isolate)): 1 to 8 µg/mL (≈ 1.71 to 13.7 µM) | MIC ([2]; A. baumannii clinical strain 11 (resistant clinical isolate)): ≥ 32 µg/mL | MIC ([2]; A. baumannii clinical strain 12 (resistant clinical isolate)): ≥ 32 µg/mL | MIC ([2]; A. baumannii clinical strain 13 (resistant clinical isolate)): ≥ 32 µg/mL | MIC ([2]; A. baumannii clinical strain 14 (resistant clinical isolate)): ≥ 32 µg/mL | MIC ([2]; A. baumannii clinical strain 15 (resistant clinical isolate)): ≥ 32 µg/mL | MIC ([2]; A. baumannii clinical strain 16 (resistant clinical isolate)): ≥ 32 µg/mL | MIC ([2]; A. baumannii clinical strain 17 (resistant clinical isolate)): ≥ 32 µg/mL | MIC ([2]; A. baumannii clinical strain 18 (resistant clinical isolate)): ≥ 32 µg/mL | MIC ([2]; A. baumannii clinical strain 19 (resistant clinical isolate)): 1 to 8 µg/mL (≈ 1.71 to 13.7 µM) | MIC ([2]; A. baumannii clinical strain 20 (resistant clinical isolate)): 1 to 8 µg/mL (≈ 1.71 to 13.7 µM) | MIC ([2]; A. baumannii clinical strain 21 (resistant clinical isolate)): ≥ 32 µg/mL | MIC ([2]; A. baumannii clinical strain 22 (resistant clinical isolate)): ≥ 32 µg/mL | MIC ([2]; A. baumannii clinical strain 23 (resistant clinical isolate)): ≥ 32 µg/mL | MIC ([2]; A. baumannii clinical strain 24 (resistant clinical isolate)): ≥ 32 µg/mL | MIC ([2]; A. baumannii strain 25 (susceptible)): ≤ 1 µg/mL | MIC ([2]; A. baumannii strain 26 (susceptible)): 1 to 8 µg/mL (≈ 1.71 to 13.7 µM) | MIC ([2]; A. baumannii strain 27 (susceptible)): 1 to 8 µg/mL (≈ 1.71 to 13.7 µM) | MIC ([2]; A. baumannii strain 28 (susceptible)): 1 to 8 µg/mL (≈ 1.71 to 13.7 µM) | MIC ([2]; A. baumannii strain 29 (susceptible)): ≤ 1 µg/mL
Structure (SMILES): NCC[C@H](O)C(=O)N[C@@H]1C[C@H](N)[C@@H](O[C@H]2O[C@H](CN)[C@@H](O)[C@H](O)[C@H]2O)[C@H](O)[C@H]1O[C@H]1O[C@H](CO)[C@@H](O)[C@H](N)[C@H]1O [AMK, amikacin]
